The results in this text go back to ChEMBL document CHEMBL3352715, “Synthesis of new verapamil analogues and their evaluation in combination with rifampicin against Mycobacterium tuberculosis and molecular docking studies in the binding site of efflux protein Rv1258c” (2014).

What is called MIC99 is the lowest concentration that inhibits either 99% of growth or 99% of the strains tested, depending on the study. The low end stands for greater potency, the high end for weaker potency.

The test relates to Mycobacterium tuberculosis. As to the kind of experiment: Antimycobacterial activity against Mycobacterium tuberculosis H37Rv by MABA method. Type of test: functional.

≈ marks a conversion by molar mass, not a printed value.

Compound `COc1ccc(CCN(CCCC(C#N)(c2ccc(OC)c(OC)c2)C(C)C)C2CC2)cc1OC` (stereo not drawn) returned an MIC99 of 125 µM (≈ 60.1 µg/mL).

In the case of `CCN(CCCC(C#N)(c1ccc(OC)c(OC)c1)C(C)C)CCc1ccc(OC)c(OC)c1` (stereo not drawn), the MIC99 was 1000 µM (≈ 469 µg/mL).

Compound `CCCN(CCCC(C#N)(c1ccc(OC)c(OC)c1)C(C)C)CCc1ccc(OC)c(OC)c1` (stereo not drawn) came in with an MIC99 of 500 µM (≈ 241 µg/mL).

Turning to `COc1ccc(CCN(CCCC(C#N)(c2ccc(OC)c(OC)c2)C(C)C)Cc2ccccc2)cc1OC` (stereo not drawn), the MIC99 came out at 1000 µM (≈ 531 µg/mL).

On to `COc1ccc(N(C)CCCC(C#N)(c2ccc(OC)c(OC)c2)C(C)C)cc1OC` (stereo not drawn), for which the MIC99 was found to be 1000 µM (≈ 427 µg/mL).

On to `COc1ccc(CN(C)CCCC(C#N)(c2ccc(OC)c(OC)c2)C(C)C)cc1OC` (stereo not drawn), for which the MIC99 was found to be 1000 µM (≈ 441 µg/mL). In other words, the millimolar range.

`COc1ccc(C(C#N)(CCCN2CCCCC2)C(C)C)cc1OC` (stereo not drawn) gave an MIC99 of 1000 µM (≈ 344 µg/mL).

With `COc1ccc(C(C#N)(CCCN2CCOCC2)C(C)C)cc1OC` (stereo not drawn), the MIC99 was determined as 1000 µM (≈ 346 µg/mL).

Take `COc1ccc(C(C#N)(CCCN2CCC(O)CC2)C(C)C)cc1OC` (stereo not drawn): the MIC99 is 1000 µM (≈ 360 µg/mL).

`COc1ccc(C(C#N)(CCCN2CCC(N3CCCCC3)CC2)C(C)C)cc1OC` (stereo not drawn) gave an MIC99 of 500 µM (≈ 214 µg/mL).

`COc1ccc(C(C#N)(CCCN2CCC(O)(c3ccccc3)CC2)C(C)C)cc1OC` (stereo not drawn) came in with an MIC99 of 250 µM (≈ 109 µg/mL). Compared with the last compound, the MIC99 is about 2-fold lower.

For the compound `COc1ccc(C(C#N)(CCCN2CCN(c3ccccc3)CC2)C(C)C)cc1OC` (stereo not drawn), the MIC99 was found to be 250 µM (≈ 105 µg/mL).

`COc1ccc(C(C#N)(CCCN2CCN(c3ccccn3)CC2)C(C)C)cc1OC` (stereo not drawn) registered an MIC99 of 250 µM (≈ 106 µg/mL).

As for `COc1ccc(C(C#N)(CCCN2CCN(c3ccccc3F)CC2)C(C)C)cc1OC` (stereo not drawn), the MIC99 worked out at 62.5 µM (≈ 27.5 µg/mL).

Regarding `COc1ccc(CCN(C)CCCC(C#N)c2ccc(OC)c(OC)c2)cc1OC` (stereo not drawn), the MIC99 was 1000 µM (≈ 413 µg/mL).

For `COc1ccc(CCN(C)CCCC(C)(C#N)c2ccc(OC)c(OC)c2)cc1OC` (stereo not drawn), the MIC99 came out at 1000 µM (≈ 427 µg/mL).

As to `CCC(C#N)(CCCN(C)CCc1ccc(OC)c(OC)c1)c1ccc(OC)c(OC)c1` (stereo not drawn), the MIC99 came to 1000 µM (≈ 441 µg/mL).

For the compound `CCCC(C#N)(CCCN(C)CCc1ccc(OC)c(OC)c1)c1ccc(OC)c(OC)c1` (stereo not drawn), the MIC99 was determined as 500 µM (≈ 227 µg/mL).

Compound `COc1ccc(CCN(C)CCCC(C#N)(c2ccc(OC)c(OC)c2)C2CCCC2)cc1OC` (stereo not drawn) gave an MIC99 of 125 µM (≈ 60.1 µg/mL). Against the preceding compound, the MIC99 is about 4-fold lower.

As for `COc1ccc(CCN(C)CCCC(C#N)(c2ccc(OC)c(OC)c2)C2CCCCC2)cc1OC` (stereo not drawn), the MIC99 was found to be 62.5 µM (≈ 30.9 µg/mL).

As for `COc1ccc(CCNCCCC(C#N)(c2ccc(OC)c(OC)c2)C(C)C)cc1OC` (stereo not drawn) [NORVERAPAMIL], the MIC99 worked out at 500 µM (≈ 220 µg/mL).

Consider `CO[C@H]1/C=C/O[C@@]2(C)Oc3c(C)c(O)c4c(O)c(c(/C=N/N5CCN(C)CC5)c(O)c4c3C2=O)NC(=O)/C(C)=C\C=C\[C@H](C)[C@H](O)[C@@H](C)[C@@H](O)[C@@H](C)[C@H](OC(C)=O)[C@@H]1C` [RIFAMPIN], for which the MIC99 amounted to 0.0083 µM (≈ 0.00683 µg/mL).

Compound `COc1ccc(CCN(C)CCCC(C#N)(c2ccc(OC)c(OC)c2)C(C)C)cc1OC` (stereo not drawn) [VERAPAMIL] came in with an MIC99 of 500 µM (≈ 227 µg/mL).
